The values that follow come from patent publication US7145013B2, “3-thia-4-arylquinolin-2-one derivatives” (Bristol-Myers Squibb Company, priority 2003, dated 2006).

The subject of test [1] is rat small intestine (ileum) segments. As to the kind of experiment: Rat small intestine (ileum) strip relaxation. The note with it: integral of nifedipine-sensitive force, pre- vs 30 min post-compound. An excerpt: The ability of the compounds of the invention to relax rat small intestine tissue as a model for the treatment of irritable bowel syndrome is described as follows. Male rats (Harlan, Sprague Dawley, 250–350 g) were sacrificed by decapitation. A portion of small intestine (ileum) was removed and the attached connective tissues and intestinal contents removed. The ileum was cut into segments of ≦1 cm in length. The segments were mounted longitudinally between fixed hooks in organ baths containing warm (37° C.) physiological salt solution (composition in mM: NaCl 118.4, KCl 4.7, KH2PO4 1.2, MgSO4 1.2, CaCl2 1.8, Glucose 10.1, NaHCO3 25; gassed with 95% O2/5% CO2, pH 7.4). A stable tension of ˜1.5 g was maintained in the tissue segments during the equilibration period of 45 minutes. Changes in muscle tension were measured with isometric force transducers (Grass, FT-03C) and recorded using AcqKnowledge data acquisition system (AcqKnowledge for MP100WS, Biopac Systems Inc., Goleta, Calif.). Compound or vehicle was added in the baths for 30 minutes. […] The effects of compounds or vehicle on force was determined by measuring the integral of nifedipine-sensitive force (including resting tone and spontaneous contractions) pre- and 30 min post-compound (or vehicle) addition. Results are expressed as the percentage inhibition of force. […]

The subject of test [2] is cloned mammalian (mSlo or hSlo) BK channel expressed in Xenopus oocytes. The test is described as follows: Assay for BK channel openers: two-electrode voltage clamp, BK-mediated outward current in Xenopus oocytes. The class given is cell-based. The note with it: percent increase over BK current in controls, voltage step to +140 mV, IBTX-sensitive current. On the procedure:
The ability of the compounds of the invention to open BK channels and increase whole-cell outward (K^+) BK-mediated currents was assessed under voltage-clamp conditions by determining their ability to increase cloned mammalian (mSlo or hSlo) BK-mediated outward current heterologously expressed in Xenopus oocytes [Butler, A., et al., Science 1993, 261, 221–224; Dworetzky, S. I., et al., Mol. Brain Res. 1994, 27, 189–193; Gribkoff, V. K., et al., Mol. Pharmacol. 1996, 50, 206–217]. The two BK constructs employed represent nearly structurally identical homologous proteins, and have proven to be pharmacologically indistinguishable in our tests. To isolate BK current from native (background, non-BK) current, the specific and potent BK channel-blocking toxin iberiotoxin (IBTX) [Galvez, A., et al., J. Biol. Chem. 1990, 265, 11083–11090] was employed at a supramaximal concentration, e.g., 50–100 nanomolar (“nM”). The relative contribution of BK channel-mediated current to total outward current was determined by subtraction of the current remaining in the presence of IBTX (non-BK current) from the current profiles obtained in all other experimental conditions (control, drug, and wash) [Gribkoff, V. K. et al., Mol. Pharmacol. 1996, 50, 206–217]. […] All compounds were tested in 5–10 oocytes and are reported at the indicated concentration of 20 micromolar (“μM”) (or as otherwise indicated); the effect of the selected compounds of the invention on BK current was expressed as the percent of control IBTX-sensitive current at a single transmembrane voltage (+140 mV) and is listed in Table 1. Recordings were accomplished using standard two-electrode voltage clamp techniques [Stuhmer, W., et al., Methods in Enzymology, 1992, 207, 319–339]; voltage-clamp protocols consisted of 500–750 milliseconds (“ms”) duration step depolarizations, from a holding potential of −60 mV, to a final voltage up to +140 mV in 20 mV steps. The experimental media (modified Barth's solution) consisted of millimolar (“mM”): NaCl (88), NaHCO3 (2.4), KCl (1.0), HEPES (10), MgSO4 (0.82), Ca(NO3)2 (0.33), CaCl2 (0.41); pH 7.5.
For orientation: In two-electrode clamp one electrode senses voltage and the other passes current.

For the molecule `Nc1ccc(Sc2c(-c3cc(Cl)ccc3O)c3cc(C(F)(F)F)ccc3[nH]c2=O)cc1` [Example 1, 3-[(4-Aminophenyl)thio]-4-(5-chloro-2-hydroxyphenyl)-6-(trifluoromethyl)-2(1H)-quinolinone], in test [1], the “% Inhibition of force (RSI strips)” value is given as 10%. In test [2] (at 20 μM), the “% MaxiK opening” value is given as 392%.

As to `COc1ccc(Cl)cc1-c1c(Sc2ccc(NS(=O)(=O)C(F)(F)F)cc2)c(=O)[nH]c2ccc(C(F)(F)F)cc12` [Example 4, N-[4-[[4-(5-chloro-2-methoxyphenyl)-1,2-dihydro-2-oxo-6-(trifluoromethyl)-3-quinolinyl]thio]phenyl]-1,1,1-trifluoromethanesulfonamide], the “% MaxiK opening” value in test [2] (at 20 μM) came to 235%. With `CN(C)S(=O)(=O)Nc1ccc(Sc2c(-c3cc(Cl)ccc3O)c3cc(C(F)(F)F)ccc3[nH]c2=O)cc1` [Example 6, N′-[4-[[4-(5-chloro-2-hydroxyphenyl)-1,2-dihydro-2-oxo-6-(trifluoromethyl)-3-quinolinyl]thio]phenyl]-N,N-dimethylsulfamide], the “% MaxiK opening” value in test [2] (at 1 μM) was 222^⋄ %.

Take `O=c1[nH]c2ccc(C(F)(F)F)cc2c(-c2cc(Cl)ccc2O)c1Sc1ccc(NS(=O)(=O)CC(F)(F)F)cc1` [Example 8, N-[4-[[4-(5-chloro-2-hydroxyphenyl)-1,2-dihydro-2-oxo-6-(trifluoromethyl)-3-quinolinyl]thio]phenyl]-2,2,2-trifluoroethanesulfonamide]: in test [2] (at 20 μM), the “% MaxiK opening” value turned out to be 170%.

Take `Cn1c(=O)c(Sc2ccc(N)cc2)c(-c2cc(Cl)ccc2O)c2cc(C(F)(F)F)ccc21` [Example 2, 3-[(4-Aminophenyl)thio]-4-(5-chloro-2-hydroxyphenyl)-1-methyl-6-(trifluoromethyl)-2(1H)-quinolinone]: in test [2] (at 20 μM), the “% MaxiK opening” value is given as 144%. For the molecule `CN(C)S(=O)(=O)Nc1ccc(Sc2c(-c3cc(Cl)ccc3O)c3cc(C(F)(F)F)ccc3n(C)c2=O)cc1` [Example 9, N′-[4-[[4-(5-chloro-2-hydroxyphenyl)-1,2-dihydro-1-methyl-2-oxo-6-(trifluoromethyl)-3-quinolinyl]thio]phenyl]-N,N-dimethylsulfamide], the “% MaxiK opening” value in test [2] (at 1 μM) is on record as 114^⋄ %. As for `O=c1[nH]c2ccc(C(F)(F)F)cc2c(-c2cc(Cl)ccc2O)c1Sc1ccc(NS(=O)(=O)C(F)(F)F)cc1` [Example 7, N-[4-[[4-(5-chloro-2-hydroxyphenyl)-1,2-dihydro-2-oxo-6-(trifluoromethyl)-3-quinolinyl]thio]phenyl]-1,1,1-trifluoromethanesulfonamide], the “% Inhibition of force (RSI strips)” value in test [1] came to 51%. Moreover, the “% MaxiK opening” value in test [2] (at 20 μM) came out at 277%. As to `CCS(=O)(=O)Nc1ccc(Sc2c(-c3cc(Cl)ccc3O)c3cc(C(F)(F)F)ccc3[nH]c2=O)cc1` [Example 3, N-[4-[[4-(5-Chloro-2-hydroxyphenyl)-1,2-dihydro-2-oxo-6-(trifluoromethyl)-3-quinolinyl]thio]phenyl]ethanesulfonamide], in test [2] (at 20 μM), the “% MaxiK opening” value turned out to be 296%. The same measure, in the same setting: the value for `CCCS(=O)(=O)Nc1ccc(Sc2c(-c3cc(Cl)ccc3O)c3cc(C(F)(F)F)ccc3[nH]c2=O)cc1` [Example 5, N-[4-[[4-(5-chloro-2-hydroxyphenyl)-1,2-dihydro-2-oxo-6-(trifluoromethyl)-3-quinolinyl]thio]phenyl]-1-propanesulfonamide] was 255%.
